From patent publication US10221426B2, “Constitutively active PYR/PYL receptor proteins for improving plant stress tolerance” (The Regents of the University of California, priority 2009, dated 2019)

Key:
PYR1-HAB1 = target: T1, PYR1-HAB1 (Arabidopsis thaliana, UniProt O49686); experiment: Yeast two-hybrid BD-PYR1 / AD-HAB1 interaction, X-gal stain; type: cell-based; details: 10 μM, except epi-brassinolide (50 nM)
T1 construct: the Pyr1 open reading frame was PCR amplified from genomic DNA; expressed in transfected cells; host or cells: yeast strain Y190
T1 sequence (O49686 1-191): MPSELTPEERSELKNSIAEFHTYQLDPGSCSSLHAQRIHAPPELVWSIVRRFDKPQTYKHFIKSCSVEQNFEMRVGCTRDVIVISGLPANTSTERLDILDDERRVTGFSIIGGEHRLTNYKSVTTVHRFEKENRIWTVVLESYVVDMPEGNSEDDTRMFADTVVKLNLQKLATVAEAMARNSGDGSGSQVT
T1 sequence (Q9CAJ0 23-511 partner): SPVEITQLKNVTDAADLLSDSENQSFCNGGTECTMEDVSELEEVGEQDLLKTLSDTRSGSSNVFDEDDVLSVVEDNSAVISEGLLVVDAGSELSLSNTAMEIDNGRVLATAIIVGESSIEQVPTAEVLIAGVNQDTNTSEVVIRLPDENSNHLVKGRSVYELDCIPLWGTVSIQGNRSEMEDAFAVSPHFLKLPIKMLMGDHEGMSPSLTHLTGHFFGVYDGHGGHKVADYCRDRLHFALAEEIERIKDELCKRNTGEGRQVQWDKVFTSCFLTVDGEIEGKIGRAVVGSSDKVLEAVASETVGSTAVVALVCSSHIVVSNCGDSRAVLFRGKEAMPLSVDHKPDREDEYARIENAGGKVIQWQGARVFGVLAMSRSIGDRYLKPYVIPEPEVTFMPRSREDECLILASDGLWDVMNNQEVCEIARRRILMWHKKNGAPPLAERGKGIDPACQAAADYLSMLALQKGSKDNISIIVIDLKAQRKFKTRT
Method: (§1) Given that PYR1 is necessary for pyrabactin action and is a predicted ligand-binding protein, we hypothesized that pyrabactin agonizes ABA signaling by inducing a protein-protein interaction between PYR1 and a downstream effector. To test this, ˜2 million prey cDNA clones were screened against a PYR1 Y2H bait construct on media containing 10 μM pyrabactin. To create the PYR1 Y2H bait construct, the Pyr1 open reading frame was PCR amplified from genomic DNA and cloned to pGem-T easy vector (Promega). After sequence confirmation, the Pyr1 ORF was then cloned in-frame between EcoRI and SalI sites of the pBD-GAL4 Cam vector (Stratagene) and transformed into yeast strain Y190. For the screen, an etiolated seedling cDNA library (J. Kim, K., Harter, A., Theologis, Proc Natl Acad Sci USA 94, 11786 (Oct. 28, 1997)) (ABRC stock CD4-22) was used. The cDNA library was first converted from phage to plasmid DNA, yielding 7.6×10^7 transformants. Plasmid DNA prepared from library was then used to transform Y190 as described in the GAL4 Two-Hybrid system manual (Stratagene). For each screen, 40 μg of prey plasmid was transformed into 1 ml of competent Y190 cell harboring bait construct and then grown on SD agar plates lacking His, Leu, and Trp, but containing 15 mM 3-AT and 10 μM pyrabactin. After 4 days incubation at 30° C., well-grown colonies were rescued and interactions validated using filter lift assay or chloroform-agarose overlay method and X-Gal staining. This identified two pyrabactin-dependent hits which sequencing determined encoded cDNAs for the PP2C HAB1, a close relative of the well-characterized ABA response factor ABI1 (A. Saez et al., The Plant Journal 37, 354 (2004); N. Leonhardt et al., THE PLANT CELL 16, 596 (2004)). Next, Y2H strains expressing an AD-HAB1 fusion protein and a BD-PYR1 fusion protein were grown on plates and tested for interactions in response to various compounds, all at 10 μM except for epi-brassinolide (50 nM) and dimethyl sulfoxide (DMSO) (carrier solvent, 1%). […] Thus, PYR1 interacts with HAB1 in a (+)-ABA dependent fashion.

Arabidopsis seeds = experiment: Seed germination inhibition; type: in vivo; details: in vivo
Method: FIG. 1. Pyrabactin is a seed selective ABA agonist. (A) Structures of molecules described in this study. (B) Pyrabactin activity is suppressed by abi1-1. Seeds of the genotype shown at top were imbibed on media containing 25 μM pyrabactin and scored for germination 4 days after stratification. Shown at bottom are IC50 values for pyrabactin's germination effect on the genotypes characterized. (C) Microarray comparison of pyrabactin and ABA treatments in seeds. The Y-axis plots the log2 transformed value for a probe's response to 25 μM pyrabactin (relative to untreated control) and the X-axis a probe's response to 1 μM ABA. […] (D) Microarray comparison of cycloheximide and ABA responses in seeds. […] (E) Microarray comparison of pyrabactin and ABA responses in seedlings. Seven-day old seedlings were transferred to 10 μM ABA or 50 μM pyrabactin containing plates for 24 hours and then mRNA samples profiled. Inset in each scatter plot is the Pearson correlation coefficient for each comparison. Detailed microarray methods are described in the Examples section.
FIG. 2. PYR1 encodes an ABA responsive START-domain protein. (A) Pyr1 alleles. Shown are the allele names, strain names (in parentheses) and amino acid changes caused by the Pyr1 mutant alleles identified by screening for pyrabactin resistant mutations. (B) Pictographic representation of Pyr1 and Pyl1-Pyl4 expression values housed in public microarray databases. The heatmap shown at top right is for the first upper three panels and the bottom heatmap for the guard cell data. Plots were made using the eFP browser (D. Winter et al., PLoS ONE 2, e718 (2007)). (C) 35S::GFP-PYR1 complements pyr1-1. Seeds of the genotypes shown were stratified 4 days on 25 μM pyrabactin and then germinated at RT, 90% RH for 3 days in darkness. […] (D) Pyr/Pyls are required for normal ABA-induced gene expression in seedlings. Shown are qRT-PCR results for the ABA-responsive gene RD29. L, Ler; C, Col; and Q, quadruple mutant. (E) Pyr/Pyl genes are required for normal ABA-induced stress-induced gene expression in seedlings. Shown are qRT-PCR results for two ABA-responsive taqman probes, as described in the Examples section. L=Ler, C=Col, Q=quadruple mutant.
As part of an earlier effort, we identified a germination inhibitor named pyrabactin (Y. Zhao et al., Nat Chem Biol 3, 716 (2007)). […] To test this hypothesis, we examined the pyrabactin sensitivity of mutant lines with altered ABA signaling, biosynthesis or gibberellic acid (GA) perception.
We next performed microarray experiments to evaluate the similarity of the transcriptional responses induced by ABA and pyrabactin treatments. For microarray, tissue was prepared and RNA extracted from Columbia wild type seeds sown on 0.5×MS media (˜2500 seeds per 150 mm plate) containing either 1 μM ABA, 25 μM pyrabactin, 25 μM 2,4-Dinitrophenol (DNP), 1 μM cycloheximide, 2 μM methotrexate or 1% DMSO control plates (all chemicals are dissolved in DMSO). The concentrations utilized for these experiments were normalized for germination inhibition activity by dose curve analyses, i.e. the amount of both compounds required to ensure 100% inhibition of germination when scored 3 days post-imbibition. ABA (±stereoisomers), DNP, cycloheximide and methotrexate were purchased from Sigma Aldrich. Seeds were stratified for 4 days and then incubated in the dark at room temperature for 24 hours. […]

PYL3-HAB1 = target: T2, PYL3-HAB1 (Arabidopsis thaliana, UniProt Q9SSM7); experiment: Yeast two-hybrid BD-PYL3 / AD-HAB1 interaction; type: cell-based
T2 construct: BD-PYR/PYL fusion proteins were constructed in the same manner as for BD-PYR1 above; expressed in transfected cells; host or cells: yeast (Y190, as for BD-PYR1)
T2 sequence (Q9SSM7 1-209): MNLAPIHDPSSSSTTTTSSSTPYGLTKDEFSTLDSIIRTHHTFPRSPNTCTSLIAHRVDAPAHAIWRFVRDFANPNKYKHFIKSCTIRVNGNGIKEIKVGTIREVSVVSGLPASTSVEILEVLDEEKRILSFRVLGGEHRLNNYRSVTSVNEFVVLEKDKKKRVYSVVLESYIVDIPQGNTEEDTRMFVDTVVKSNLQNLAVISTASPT
T2 sequence (Q9CAJ0 23-511 partner): T1 sequence (Q9CAJ0 23-511 partner)
Method: as §1
(§2) To see if ABA and pyrabactin responsiveness is unique to PYR1, we tested 11 of the 13 PYL proteins as described above, using Y2H strains expressing an AD-HAB1 fusion protein and a BD-PYR/PYL fusion protein (listed at the left of FIG. 3A). BD-PYR/PYL fusion proteins were constructed in the same manner as for BD-PYR1 above. […] Of these, only Pyr1 is highly transcribed in seeds, which likely explains why mutations in Pyr1 cause the seeds to be insensitive to pyrabactin. […] However the interactions of PYLs 5-12 with the PP2Cs are indicative that the entire protein family is likely to share a similar mechanism of action involving PP2C modulation, as we describe below. Thus, we conclude that entire family modulates ABA responses via PP2C interactions.
The yeast strains expressing PYR/PYL receptors and type 2 C protein phosphatases were also used to screen HPLC-fractionated plant extracts for the presence of endogenous compounds that activate PYL/PYL receptors PYR1, PYL2, PYL3, and/or PYL4. HPLC fractionation of extracts was used to identify compounds different from abscisic acid (the known agonist). […] Purification of the agonist was achieved via multiple rounds of chromatographic separation coupled to yeast two hybrid assays that informed the fractions to move forward at each step of the purification. The structure of the purified agonist was deduced by X-ray crystallography of crystalline purified agonist.

PYL4-HAB1 = target: T3, PYL4-HAB1 (Arabidopsis thaliana, UniProt O80920); experiment: Yeast two-hybrid BD-PYL4 / AD-HAB1 interaction; type: cell-based
T3 construct: BD-PYR/PYL fusion proteins were constructed in the same manner as for BD-PYR1 above; expressed in transfected cells; host or cells: yeast (Y190, as for BD-PYR1)
T3 sequence (O80920 1-207): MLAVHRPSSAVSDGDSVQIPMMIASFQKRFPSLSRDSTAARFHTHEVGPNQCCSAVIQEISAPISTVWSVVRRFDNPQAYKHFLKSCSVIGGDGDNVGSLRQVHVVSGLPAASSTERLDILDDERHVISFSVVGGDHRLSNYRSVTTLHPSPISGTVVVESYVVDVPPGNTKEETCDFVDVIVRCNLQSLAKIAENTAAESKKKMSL
T3 sequence (Q9CAJ0 23-511 partner): T1 sequence (Q9CAJ0 23-511 partner)
Method: as §1
as §2, with “Thus, we conclude that entire family modulates ABA responses via PP2C interactions.” left out

PYL2-HAB1 = target: T4, PYL2-HAB1 (Arabidopsis thaliana, UniProt O80992); experiment: Yeast two-hybrid BD-PYL2 / AD-HAB1 interaction, X-gal stain; type: cell-based; details: 10 μM
T4 construct: BD-PYR/PYL fusion proteins were constructed in the same manner as for BD-PYR1 above; expressed in transfected cells; host or cells: yeast (Y190, as for BD-PYR1)
T4 sequence (O80992 1-190): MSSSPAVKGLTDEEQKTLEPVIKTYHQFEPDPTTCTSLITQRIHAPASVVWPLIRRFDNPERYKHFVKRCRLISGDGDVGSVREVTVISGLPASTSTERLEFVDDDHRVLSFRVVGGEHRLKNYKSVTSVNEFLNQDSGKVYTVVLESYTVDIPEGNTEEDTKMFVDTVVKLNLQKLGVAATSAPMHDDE
T4 sequence (Q9CAJ0 23-511 partner): T1 sequence (Q9CAJ0 23-511 partner)
Method: as §1, with “fashion. […]” for “fashion.”

[1] = plant extract screen and related commercial compounds

Compound | PYR1-HAB1 interaction by X-gal stain (PYR1-HAB1) | other results
O=C(O)COc1ccc(Cl)cc1Cl [2,4-D] | neither (−)-ABA, kinetin, 2,4-D, Gibberellic acid (GA), epi-brassinolide (BR), methyl jasmonate (meJA) or apyrabactin showed activity | 
C=C1C[C@]23C[C@@]1(O)CC[C@H]2[C@@]12C=C[C@H](O)[C@@](C)(C(=O)O1)[C@H]2[C@@H]3C(=O)O [Gibberellic acid] | neither (−)-ABA, kinetin, 2,4-D, Gibberellic acid (GA), epi-brassinolide (BR), methyl jasmonate (meJA) or apyrabactin showed activity | 
O=S(=O)(NCc1ccccc1)c1ccc(Br)c2ccccc12 [apyrabactin] | neither (−)-ABA, kinetin, 2,4-D, Gibberellic acid (GA), epi-brassinolide (BR), methyl jasmonate (meJA) or apyrabactin showed activity | effect on germination (Arabidopsis seeds): inactive analog
C=C(C(=O)O)[C@@H]1CC[C@@H](C)[C@@H]2CCC(C)=C[C@@H]21 [artemisinic acid] |  | PYL3 agonist activity in yeast two hybrid assays (PYL3-HAB1; [1]): PYL3/PYL4 selective agonist; PYL4 agonist activity in yeast two hybrid assays (PYL4-HAB1; [1]): PYL3/PYL4 selective agonist
CC(C)[C@@H](C)[C@@H](O)[C@H](O)[C@@H](C)[C@H]1CC[C@H]2[C@@H]3COC(=O)[C@H]4C[C@H](O)[C@H](O)C[C@]4(C)[C@H]3CC[C@]12C [epi-brassinolide] | neither (−)-ABA, kinetin, 2,4-D, Gibberellic acid (GA), epi-brassinolide (BR), methyl jasmonate (meJA) or apyrabactin showed activity | 
c1coc(CNc2ncnc3[nH]cnc23)c1 [kinetin] | neither (−)-ABA, kinetin, 2,4-D, Gibberellic acid (GA), epi-brassinolide (BR), methyl jasmonate (meJA) or apyrabactin showed activity | 
CC/C=C\CC1C(=O)CCC1CC(=O)OC (stereo not shown) [methyl jasmonate] | neither (−)-ABA, kinetin, 2,4-D, Gibberellic acid (GA), epi-brassinolide (BR), methyl jasmonate (meJA) or apyrabactin showed activity | 
(−)-ABA | neither (−)-ABA, kinetin, 2,4-D, Gibberellic acid (GA), epi-brassinolide (BR), methyl jasmonate (meJA) or apyrabactin showed activity | PYL2-HAB1 interaction by X-gal stain (PYL2-HAB1): respond; PYL3-HAB1 interaction by X-gal stain (PYL3-HAB1; 10 μM): respond; PYL4-HAB1 interaction by X-gal stain (PYL4-HAB1; 10 μM): respond
